Like-named read-outs stand apart in the source and are kept apart here.
Assays:
[1] = biological target: T1, EIF2AK3 (PERK) catalytic domain (amino acids 536-1116) (Homo sapiens, UniProt Q9NZJ5); experiment: PERK In Vitro Activity Assay (Isolated), TR-FRET kinase assay; type: biochemical; conditions: isolated PERK enzyme, 1.5 μM ATP
T1 construct: EIF2AK3 (PERK) catalytic domain (amino acids 536-1116); purchased Invitrogen, Carlsbad, Calif
T1 sequence (Q9NZJ5 536-1116): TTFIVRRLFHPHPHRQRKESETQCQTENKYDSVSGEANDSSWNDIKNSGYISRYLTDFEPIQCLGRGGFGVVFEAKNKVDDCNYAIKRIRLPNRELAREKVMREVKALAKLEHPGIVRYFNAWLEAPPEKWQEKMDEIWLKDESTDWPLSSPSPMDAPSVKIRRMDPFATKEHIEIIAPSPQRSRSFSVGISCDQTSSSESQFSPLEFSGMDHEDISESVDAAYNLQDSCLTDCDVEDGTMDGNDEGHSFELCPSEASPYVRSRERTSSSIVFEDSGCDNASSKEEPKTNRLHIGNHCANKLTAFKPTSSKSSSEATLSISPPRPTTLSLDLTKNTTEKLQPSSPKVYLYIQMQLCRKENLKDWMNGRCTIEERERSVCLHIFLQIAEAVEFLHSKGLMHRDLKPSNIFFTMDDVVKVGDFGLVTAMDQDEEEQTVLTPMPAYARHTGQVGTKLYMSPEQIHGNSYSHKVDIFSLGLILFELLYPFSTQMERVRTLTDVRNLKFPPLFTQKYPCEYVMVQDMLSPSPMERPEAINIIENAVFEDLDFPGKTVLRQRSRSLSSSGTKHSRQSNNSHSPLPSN
Method: Perform TR-FRET kinase assays in the absence or presence of inhibitors in a reaction buffer consisting of 50 mM HEPES, pH 7.5, 10 mM MgCb, 1.0 mM EGTA, and 0.01% Brij-35, and 100-200 nM GFP-eIF2a substrate. […] Add test compound, initiate the reaction by addition of enzyme, and incubate at room temperature for 45 minutes. Stop the reaction by addition of EDTA to a final concentration of 10 mM, add Terbium-labelled phospho-eIF2a antibody at a final concentration of 2 nM, and incubate for 90 minutes. Monitor the resulting fluorescence in an EnVison® Multilabel reader (PerkinElmer, Waltham, Mass.).

HEK293-EGFP-eIF2a cells = experiment: PERK Cellular Assay (TR-FRET, GFP-eIF2α, tunicamycin-induced ER stress); type: cell-based, human
Method: Stable cell lines were created in HEK293 cells using lentiviral particles harboring an expression vector for GFP-eIF2α. Cells were selected using puromycin and enriched using fluorescence activated cell sorting against GFP. HEK293-EGFP-eIF2a cells were plated at 5000 cells/well in 384-well assay plates and incubated overnight at 37° C., 5% CO2. Inhibitor compounds were added to the wells by Echo acoustic dispensing and incubated for 30 minutes at 37° C., 5% CO2 prior to induction of ER stress by addition of tunicamycin to […] for 2 hours. Cells were lysed and TR-FRET was measured in an EnVision plate reader (PerkinElmer). FRET ratio data was normalized to signal from lysates treated with DMSO vehicle control and plotted as percent inhibition against 10-point; 3-fold dilution series of inhibitors. IC50 values were calculated using 4-parameter logistical fitting in XLFit.

[2] = HEK293-EGFP-eIF2a cells, tunicamycin 2 hours, TR-FRET, read-out: Cellular eIF2α IC50
[3] = Homo sapiens, 2 h, HEK293-EGFP-eIF2a cells, tunicamycin 2 hours, TR-FRET, read-out: Cellular eIF2α IC50

Structure (SMILES): Cc1cn2c(C3CC(C)(O)C3)nc(-c3ccc4c(c3F)CCN4C(=O)C(O)c3cccc(F)c3)c2c(N)n1 (single isomer, unassigned) [Example 14, 1-(5-(8-amino-3-(3-hydroxy-3-methylcyclobutyl)-6-methylimidazo[1,5-a]pyrazin-1-yl)-4-fluoroindolin-1-yl)-2-(3-fluorophenyl)-2-hydroxyethanone]
- IC50 ([1]; read-out: Biochemical IC50): 0.001 to 0.025 µM
- IC50 (HEK293-EGFP-eIF2a cells; [2]): 0.051 to 0.1 µM

Structure (SMILES): Cn1cc(-c2ccc3c(c2F)CCN3C(=O)C(F)(F)c2ccccc2)c2c(N)ncnc21 [Example 30, 1-(5-(4-amino-7-methyl-7H-pyrrolo[2,3-d]pyrimidin-5-yl)-4-fluoroindolin-1-yl)-2,2-difluoro-2-phenylethanone]
- IC50 ([1]; read-out: Biochemical IC50): 0.026 to 0.05 µM
- IC50 (HEK293-EGFP-eIF2a cells; [3]): 0.101 to 0.25 µM

Structure (SMILES): Cc1cc(C)n(CC(=O)N2CCc3c2ccc(-c2cn(C)c4ncnc(N)c24)c3F)n1 [Example 31, 1-(5-(4-amino-7-methyl-7H-pyrrolo[2,3-d]pyrimidin-5-yl)-4-fluoroindolin-1-yl)-2-(3,5-dimethyl-1H-pyrazol-1-yl)ethanone]
- IC50 ([1]; Biochemical IC50 (μM)): 0.001 to 0.025 µM
- IC50 (HEK293-EGFP-eIF2a cells; Homo sapiens, 2 h, read-out: Cellular eIF2α IC50 (μM)): 0.001 to 0.025 µM

Structure (SMILES): Cc1nc(N)c2c(-c3ccc4c(c3)CCN4C(=O)C(O)c3cc(F)cc(C(F)(F)F)c3)cn(C)c2n1 (single isomer, unassigned) [Example 19, 1-(5-(4-amino-2,7-dimethyl-7H-pyrrolo[2,3-d]pyrimidin-5-yl)indolin-1-yl)-2-(3-fluoro-5-(trifluoromethyl)phenyl)-2-hydroxyethanone]
- IC50 ([1]; read-out: Biochemical IC50): 0.001 to 0.025 µM
- IC50 (HEK293-EGFP-eIF2a cells; [2]): 0.101 to 0.25 µM

Structure (SMILES): CC(C)NC(=O)c1cc(-c2ccc3c(c2F)CCN3C(=O)C(O)c2cc(F)cc(F)c2)cnc1N (single isomer, unassigned) [Example 7, 2-amino-5-(1-(2-(3,5-difluorophenyl)-2-hydroxyacetyl)-4-fluoroindolin-5-yl)-N-isopropylnicotinamide]
- IC50 ([1]; read-out: Biochemical IC50): 0.051 to 0.1 µM
- IC50 (HEK293-EGFP-eIF2a cells; [2]): 0.101 to 0.25 µM

Structure (SMILES): Cc1cn2c(C3CC(C)(O)C3)nc(-c3ccc4c(c3F)CCN4C(=O)C(O)c3cccc(F)c3)c2c(N)n1 (single isomer, unassigned) [Example 13, 1-(5-(8-amino-3-(3-hydroxy-3-methylcyclobutyl)-6-methylimidazo[1,5-a]pyrazin-1-yl)-4-fluoroindolin-1-yl)-2-(3-fluorophenyl)-2-hydroxyethanone]
- IC50 ([1]; read-out: Biochemical IC50): 0.026 to 0.05 µM
- IC50 (HEK293-EGFP-eIF2a cells; [2]): 0.251 to 0.5 µM

Structure (SMILES): Cc1cccc(CC(=O)N2CCc3c2ccc(-c2nc(C)n4c(C)cnc(N)c24)c3F)n1 [Example 24, 1-(5-(8-amino-3,5-dimethylimidazo[1,5-a]pyrazin-1-yl)-4-fluoroindolin-1-yl)-2-(6-methylpyridin-2-yl)ethanone]
- IC50 ([1]; read-out: Biochemical IC50): 0.051 to 0.1 µM
- IC50 (HEK293-EGFP-eIF2a cells; [3]): 0.026 to 0.05 µM

Structure (SMILES): Cc1cccc(CC(=O)N2CCc3c2ccc(-c2nc(C)n4ccnc(N)c24)c3F)n1 [Example 23, 1-(5-(8-amino-3-methylimidazo[1,5-a]pyrazin-1-yl)-4-fluoroindolin-1-yl)-2-(6-methylpyridin-2-yl)ethanone]
- IC50 ([1]; read-out: Biochemical IC50): 0.026 to 0.05 µM
- IC50 (HEK293-EGFP-eIF2a cells; [3]): 0.026 to 0.05 µM

Structure (SMILES): Cn1cc(-c2ccc3c(c2F)CCN3C(=O)Nc2ccccc2)c2c(N)ncnc21 [Example 28, 5-(4-amino-7-methyl-7H-pyrrolo[2,3-d]pyrimidin-5-yl)-4-fluoro-N-phenylindoline-1-carboxamide]
- IC50 ([1]; read-out: Biochemical IC50): 0.101 to 0.25 µM
- IC50 (HEK293-EGFP-eIF2a cells; [3]): 2 to 3 µM

Structure (SMILES): Cn1cc(-c2ccc3c(c2F)CCN3C(=O)C(N)c2ccccc2)c2c(N)ncnc21 (single isomer, unassigned) [Example 3, 2-amino-1-(5-(4-amino-7-methyl-7H-pyrrolo[2,3-d]pyrimidin-5-yl)-4-fluoroindolin-1-yl)-2-phenylethanone]
- IC50 ([1]; read-out: Biochemical IC50): 0.051 to 0.1 µM
- IC50 (HEK293-EGFP-eIF2a cells; [3]): 0.051 to 0.1 µM

Structure (SMILES): Cc1cccc(C(O)C(=O)N2CCc3c2ccc(-c2nc(C4CC(C)(O)C4)n4cc(C)nc(N)c24)c3F)n1 (single isomer, unassigned) [Example 18, 1-(5-(8-amino-3-(3-hydroxy-3-methylcyclobutyl)-6-methylimidazo[1,5-a]pyrazin-1-yl)-4-fluoroindolin-1-yl)-2-hydroxy-2-(6-methylpyridin-2-yl)ethanone]
- IC50 ([1]; read-out: Biochemical IC50): 0.051 to 0.1 µM
- IC50 (HEK293-EGFP-eIF2a cells; [2]): 3 to 4 µM

Structure (SMILES): Cc1cccc(CC(=O)N2CCc3c2ccc(-c2nc(C)n4cc(C)nc(N)c24)c3F)n1 [Example 26, 1-(5-(8-amino-3,6-dimethylimidazo[1,5-a]pyrazin-1-yl)-4-fluoroindolin-1-yl)-2-(6-methylpyridin-2-yl)ethanone]
- IC50 ([1]; read-out: Biochemical IC50): 0.101 to 0.25 µM
- IC50 (HEK293-EGFP-eIF2a cells; [3]): 0.101 to 0.25 µM

Structure (SMILES): CCc1cnc(N)c2c(-c3ccc4c(c3F)CCN4C(=O)Cc3cccc(C)n3)nc(C)n12 [Example 25, 1-(5-(8-amino-5-ethyl-3-methylimidazo[1,5-a]pyrazin-1-yl)-4-fluoroindolin-1-yl)-2-(6-methylpyridin-2-yl)ethanone]
- IC50 ([1]; read-out: Biochemical IC50): 0.051 to 0.1 µM
- IC50 (HEK293-EGFP-eIF2a cells; [3]): 0.051 to 0.1 µM

Structure (SMILES): Cc1nc(N)c2c(-c3ccc4c(c3F)CCN4C(=O)C(O)c3cccc(F)c3)cn(C)c2n1 (racemic) [Example 9, 1-(5-(4-amino-2,7-dimethyl-7H-pyrrolo[2,3-d]pyrimidin-5-yl)-4-fluoroindolin-1-yl)-2-(3-fluorophenyl)-2-hydroxyethanone]
- IC50 (HEK293-EGFP-eIF2a cells; [3]): 0.051 to 0.1 µM

Structure (SMILES): Cc1cccc(C(O)C(=O)N2CCc3c2ccc(-c2nc(C4CC(C)(O)C4)n4cc(C)nc(N)c24)c3F)n1 (single isomer, unassigned) [Example 17, 1-(5-(8-amino-3-(3-hydroxy-3-methylcyclobutyl)-6-methylimidazo[1,5-a]pyrazin-1-yl)-4-fluoroindolin-1-yl)-2-hydroxy-2-(6-methylpyridin-2-yl)ethanone]
- IC50 ([1]; read-out: Biochemical IC50): 0.051 to 0.1 µM
- IC50 (HEK293-EGFP-eIF2a cells; [3]): > 5 µM

Structure (SMILES): Cn1cc(-c2ccc3c(c2F)CCN3C(=O)C(O)c2ccccc2)c2c(N)ncnc21 (single isomer, unassigned) [Example 2, 1-(5-(4-amino-7-methyl-7H-pyrrolo[2,3-d]pyrimidin-5-yl)-4-fluoroindolin-1-yl)-2-hydroxy-2-phenylethanone]
- IC50 ([1]; read-out: Biochemical IC50): 0.051 to 0.1 µM
- IC50 (HEK293-EGFP-eIF2a cells; [2]): 0.101 to 0.25 µM

Structure (SMILES): CC(C)NC(=O)c1cc(-c2ccc3c(c2F)CCN3C(=O)C(O)c2cc(F)cc(F)c2)cnc1N (single isomer, unassigned) [Example 6, 2-amino-5-(1-(2-(3,5-difluorophenyl)-2-hydroxyacetyl)-4-fluoroindolin-5-yl)-N-isopropylnicotinamide]
- IC50 ([1]; read-out: Biochemical IC50): 0.101 to 0.25 µM
- IC50 (HEK293-EGFP-eIF2a cells; [2]): 0.251 to 0.5 µM

Structure (SMILES): Cc1cccc(CC(=O)N2CCc3c2ccc(-c2nc(C)n4c(C)c(C)nc(N)c24)c3F)n1 [Example 27, 1-(5-(8-amino-3,5,6-trimethylimidazo[1,5-a]pyrazin-1-yl)-4-fluoroindolin-1-yl)-2-(6-methylpyridin-2-yl)ethanone]
- IC50 ([1]; read-out: Biochemical IC50): 0.051 to 0.1 µM
- IC50 (HEK293-EGFP-eIF2a cells; [3]): 0.251 to 0.5 µM

Structure (SMILES): Cc1nc(-c2ccc3c(c2)CCN3C(=O)Cc2cc(F)cc(C(F)(F)F)c2)c2c(N)ncc(Cl)n12 [Example 33, 1-(5-(8-amino-5-chloro-3-methylimidazo[1,5-a]pyrazin-1-yl)indolin-1-yl)-2-(3-fluoro-5-(trifluoromethyl)phenyl)ethanone]
- IC50 ([1]; read-out: Biochemical IC50): 0.001 to 0.025 µM
- IC50 (HEK293-EGFP-eIF2a cells; [3]): 0.001 to 0.025 µM

Structure (SMILES): Cc1cccc(CC(=O)N2CCc3c2ccc(-c2cnc(N)c(C(=O)NC(C)C)c2)c3F)n1 [Example 29, 2-amino-5-(4-fluoro-1-(2-(6-methylpyridin-2-yl)acetyl)indolin-5-yl)-N-isopropylnicotinamide]
- IC50 ([1]; read-out: Biochemical IC50): 0.051 to 0.1 µM
- IC50 (HEK293-EGFP-eIF2a cells; [3]): 0.501 to 1 µM

Structure (SMILES): Cc1nc(N)c2c(-c3ccc4c(c3F)CCN4C(=O)C(O)c3ccccc3)cn(C)c2n1 (racemic) [Example 5, 1-(5-(4-amino-2,7-dimethyl-7H-pyrrolo[2,3-d]pyrimidin-5-yl)-4-fluoroindolin-1-yl)-2-hydroxy-2-phenylethanone]
- IC50 ([1]; read-out: Biochemical IC50): 0.026 to 0.05 µM

Source: patent US20220348584A1, “PERK INHIBITING INDOLINYL COMPOUNDS” (HiberCell, Inc., priority 2019, published 2022)
